pEC50: −log10 of the molar value.
How the values were obtained:
[1] = target: CLK2 kinase (Homo sapiens, UniProt P49760); experiment: CLK2 kinase activity assay (Z-lyte FRET); assay type: biochemical; details: Z-lyte Ser/Thr 6 peptide, 60 μM ATP, 1 h at room temperature;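 also: FRET read-out as coumarin to fluorescein emission ratio, unphosphorylated peptide as 0% and phosphorylated peptide as 100% controls, duplicate reactions, non-linear regression fit of dose-response curves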
[2] = target: CLK3 kinase (Homo sapiens, UniProt P49761); experiment: CLK3 kinase activity assay (Z-lyte FRET); assay type: biochemical; details: Z-lyte Ser/Thr 18 peptide, 156 μM ATP, 1 h at room temperature;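 also: kinase activity read as coumarin/fluorescein emission ratio by FRET, unphosphorylated peptide as 0% and phosphorylated peptide as 100% control, values from non-linear regression of dose-response curves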
Sequence of CLK3 kinase (P49761 whole entry): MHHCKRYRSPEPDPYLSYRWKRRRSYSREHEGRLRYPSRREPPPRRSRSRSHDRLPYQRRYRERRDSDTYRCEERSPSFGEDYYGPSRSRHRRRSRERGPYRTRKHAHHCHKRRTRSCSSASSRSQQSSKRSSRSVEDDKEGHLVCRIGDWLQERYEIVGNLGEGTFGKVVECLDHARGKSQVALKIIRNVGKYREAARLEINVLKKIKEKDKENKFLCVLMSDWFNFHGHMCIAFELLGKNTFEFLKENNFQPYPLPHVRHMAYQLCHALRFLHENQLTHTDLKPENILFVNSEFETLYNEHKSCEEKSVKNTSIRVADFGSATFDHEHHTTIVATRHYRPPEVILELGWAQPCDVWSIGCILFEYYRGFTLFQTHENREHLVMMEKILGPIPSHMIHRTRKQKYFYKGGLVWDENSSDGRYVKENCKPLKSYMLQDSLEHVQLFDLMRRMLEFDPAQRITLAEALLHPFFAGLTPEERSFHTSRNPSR

[3] = tested on: Wnt pathway activity (SW480 colon carcinoma cells stably expressing the Sp5-Luc reporter); experiment: Wnt pathway activity screening assay (Sp5-Luc reporter gene assay); details: Homo sapiens, SW480, Table 4; SW480 cells stably expressing Sp5-Luc reporter, 10-point dose-response from 10 μM, 36 to 48 hours
[4] = tested on: primary human mesenchymal stem cells (hMSCs); experiment: Chondrogenesis screening using primary human mesenchymal stem cells; assay type: cell-based; details: Homo sapiens, Mesenchymal stem cells, hMSC chondrogenesis; for EC50: concentration required to induce 50% levels of chondrogenesis with TGF-β3 as positive control, read-out: Conc (nM) of 50% TGF-β3 activity; for Emax: maximum activity relative to TGF-β3 (10 ng/mL) positive control, read-out: Max. Activity as % TGF-β3 activity
Outline: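 Derived values are EC50 for 50% chondrogenesis, maximal activity and the dose giving it. These come from nodule area in passage 3–6 primary hMSCs, expressed as fold change over the mean of 3 same-plate DMSO wells, 2–3 replicates per concentration. TGF-β3 served as positive control.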

Sequence of CLK2 kinase (P49760 whole entry): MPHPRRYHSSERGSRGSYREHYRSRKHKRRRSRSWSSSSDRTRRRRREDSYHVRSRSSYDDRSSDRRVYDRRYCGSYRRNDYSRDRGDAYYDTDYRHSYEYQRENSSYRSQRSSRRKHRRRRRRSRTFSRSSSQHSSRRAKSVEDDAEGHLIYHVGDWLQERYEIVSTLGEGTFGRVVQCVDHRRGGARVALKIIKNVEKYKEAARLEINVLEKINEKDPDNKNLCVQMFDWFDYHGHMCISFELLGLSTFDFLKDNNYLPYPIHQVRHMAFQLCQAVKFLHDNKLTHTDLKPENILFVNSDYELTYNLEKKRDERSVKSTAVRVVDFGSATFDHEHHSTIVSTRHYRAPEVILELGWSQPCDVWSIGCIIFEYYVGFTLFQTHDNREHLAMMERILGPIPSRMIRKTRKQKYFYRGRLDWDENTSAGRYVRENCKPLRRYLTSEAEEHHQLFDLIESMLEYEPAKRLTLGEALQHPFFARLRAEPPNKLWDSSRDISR

Row | pEC50 [1] | pEC50 [2] | pEC50 [3] | EC50 [4] [nM] | Structure (SMILES) | Emax [4] [%]
1 | 7.80 | 6.73 | 7.39 | 30 | CS(=O)(=O)NCc1cc(F)cc(-c2nccc3[nH]c(-c4n[nH]c5ccc(-c6cncnc6)cc45)nc23)c1 [compound 293] | 73.1
2 | 9.00 | 7.60 | 7.68 | 30 | CN(C)Cc1cncc(-c2cnc3[nH]nc(-c4nc5c(-c6cc(F)cc(N7CCOCC7)c6)cncc5[nH]4)c3c2)c1 [compound 294] | 114
3 | 8.70 | 7.02 | 6.42 | 30 | COc1cccc(-c2nccc3[nH]c(-c4n[nH]c5ccc(-c6cccnc6)nc45)nc23)c1 [compound 295] | 50.6
4 | 9.00 | 7.26 | < 5.00 | 30 | COc1cccc(-c2cncc3[nH]c(-c4n[nH]c5ccc(-c6cccnc6)nc45)nc23)c1 [compound 296] | 59.2
5 | 9.00 | 7.08 | 5.79 | 100 | COc1cccc(-c2ccnc3[nH]c(-c4n[nH]c5ccc(-c6cccnc6)nc45)nc23)c1 [compound 297] | 50.5
6 | 8.10 | 6.91 | 6.24 |  | Fc1cccc(-c2cncc3[nH]c(-c4n[nH]c5ncc(-c6cccnc6)cc45)cc23)c1 [compound 300] | 35.6
7 | 8.10 | 6.98 | 5.87 |  | Fc1cccc(-c2nccc3[nH]c(-c4n[nH]c5ccc(-c6cccnc6)nc45)cc23)c1 [compound 301] | 44.8
8 | 8.22 | 7.34 | 7.35 |  | CCC(=O)Nc1cncc(-c2ccc3[nH]nc(-c4cc5c(-c6cccc(F)c6)nccc5[nH]4)c3c2)c1 [compound 302] | 16.2
9 | 7.82 | 7.07 | 7.35 |  | CCC(=O)Nc1cncc(-c2ccc3[nH]nc(-c4cc5c(-c6cccc(F)c6)cncc5[nH]4)c3c2)c1 [compound 303] | 33.5
10 | 7.80 | 7.68 | 7.88 |  | CCC(=O)Nc1cncc(-c2ccc3[nH]nc(-c4cc5c(-c6cccc(F)c6)ccnc5[nH]4)c3c2)c1 [compound 304] | 167
11 | 8.52 | 7.48 | 6.61 |  | CCC(=O)Nc1cncc(-c2cnc3[nH]nc(-c4cc5c(-c6cccc(F)c6)cncc5[nH]4)c3c2)c1 [compound 305] | 113
12 | 8.10 | 6.86 | 6.52 | 30 | CCC(=O)Nc1cncc(-c2cc3c(-c4cc5c(-c6cccc(F)c6)nccc5[nH]4)n[nH]c3cn2)c1 [compound 306] | 50.8
13 | 7.89 | 6.51 | 5.76 |  | CC(C)C(=O)Nc1cncc(-c2cc3c(-c4cc5c(-c6cccc(F)c6)cncc5[nH]4)n[nH]c3cn2)c1 [compound 307] | 42.2
14 | 8.15 | 7.08 | 5.53 |  | CN(C)Cc1cncc(-c2ccc3[nH]nc(-c4cc5c(-c6cccc(F)c6)nccc5[nH]4)c3c2)c1 [compound 308] | 42
15 | 8.52 | 7.43 | 5.89 |  | CN(C)Cc1cncc(-c2ccc3[nH]nc(-c4cc5c(-c6cccc(F)c6)cncc5[nH]4)c3c2)c1 [compound 309] | 193
16 | 8.40 | 7.13 | 5.93 | 10 | CN(C)Cc1cncc(-c2cnc3[nH]nc(-c4cc5c(-c6cccc(F)c6)cncc5[nH]4)c3c2)c1 [compound 310] | 110
17 | 8.52 | 6.66 | 5.73 | 30 | CN(C)Cc1cncc(-c2cc3c(-c4cc5c(-c6cccc(F)c6)nccc5[nH]4)n[nH]c3cn2)c1 [compound 311] | 60
18 | 8.40 | 6.60 | 5.43 |  | Fc1cccc(-c2nccc3[nH]c(-c4n[nH]c5ccc(-c6cncc(CN7CCCCC7)c6)nc45)cc23)c1 [compound 312] | 48

Second part, the molecule before the results:

Row | Structure (SMILES) | pEC50 [1] | pEC50 [2] | pEC50 [3] | EC50 [4] [nM] | Emax [4] [%]
19 | O=C(Nc1cncc(-c2ccc3[nH]nc(-c4nc5c(-c6ccc(Cl)s6)ccnc5[nH]4)c3n2)c1)C1CCC1 [compound 269] | 7.92 | 6.74 | 6.45 | 10 | 102
20 | Clc1ccc(-c2cncc3[nH]c(-c4n[nH]c5ccc(-c6cncc(CN7CCCC7)c6)nc45)nc23)s1 [compound 270] | 8.40 | 7.06 | 5.48 | 10 | 62
21 | Cc1ccc(-c2cccc3[nH]c(-c4n[nH]c5ccc(-c6cncc(N)c6)nc45)nc23)s1 [compound 271] | 8.70 | 7.47 | 7.18 | 10 | 87.9
22 | Cc1ccc(-c2nccc3[nH]c(-c4n[nH]c5ccc(-c6cncc(N)c6)cc45)nc23)s1 [compound 272] | 8.30 | 7.28 | 8.72 | 2700 | 163
23 | Cc1ccc(-c2nccc3[nH]c(-c4n[nH]c5cnc(-c6cncc(N)c6)cc45)nc23)s1 [compound 273] | 8.40 | 7.54 | 8.04 | 10 | 259
24 | Cc1ccc(-c2cncc3[nH]c(-c4n[nH]c5cnc(-c6cncc(N)c6)cc45)nc23)s1 [compound 274] | 7.96 | 6.69 | 7.96 | 100 | 162
25 | Cc1ccc(-c2cncc3[nH]c(-c4n[nH]c5ccc(-c6cncc(N)c6)nc45)nc23)s1 [compound 276] | 8.70 | 8.05 | 7.39 | 30 | 79.4
26 | Cc1ccc(-c2cncc3[nH]c(-c4n[nH]c5cnc(-c6cncc(NC(=O)C7CCC7)c6)cc45)nc23)s1 [compound 277] | 8.22 | 7.54 | 8.00 | 100 | 231
27 | CN(C)CCNc1cc(F)cc(-c2cncc3[nH]c(-c4n[nH]c5ncc(-c6cccnc6)cc45)nc23)c1 [compound 278] | 8.30 | 7.44 | 7.68 | 300 | 129
28 | CCCCC(=O)Nc1cncc(-c2ccc3[nH]nc(-c4nc5c(-c6cc(F)cc(NCCN(C)C)c6)cncc5[nH]4)c3n2)c1 [compound 279] | 8.70 | 7.03 | < 5.00 | 10 | 64.7
29 | CCCCC(=O)Nc1cncc(-c2ccc3[nH]nc(-c4nc5c(-c6cc(F)cc(NCCN(C)C)c6)ccnc5[nH]4)c3n2)c1 [compound 280] | 8.70 | 7.10 | < 5.00 | 10 | 71.4
30 | CC(C)CC(=O)Nc1cncc(-c2ccc3[nH]nc(-c4nc5c(-c6cc(F)cc(NCCN(C)C)c6)cncc5[nH]4)c3c2)c1 [compound 281] | 8.22 | 7.60 | 7.66 |  | 82
31 | CC(C)Nc1cncc(-c2ccc3[nH]nc(-c4nc5c(-c6cc(F)cc(NCCN(C)C)c6)nccc5[nH]4)c3c2)c1 [compound 282] | 8.40 | 7.30 | 6.69 | 30 | 85.1
32 | CC(C)Nc1cncc(-c2cnc3[nH]nc(-c4nc5c(-c6cc(F)cc(NCCN(C)C)c6)nccc5[nH]4)c3c2)c1 [compound 283] | 8.40 | 7.48 | 6.81 | 30 | 82.9
33 | CCNCc1cncc(-c2ccc3[nH]nc(-c4nc5c(-c6cc(F)cc(NCCN(C)C)c6)nccc5[nH]4)c3n2)c1 [compound 285] | 9.00 | 7.05 | < 5.00 |  | 35.6
34 | CCNCc1cncc(-c2ccc3[nH]nc(-c4nc5c(-c6cc(F)cc(NCCN(C)C)c6)ccnc5[nH]4)c3n2)c1 [compound 286] | 8.52 | 7.09 | < 5.00 | 20.6 | 149
35 | Cc1ccncc1-c1cc2c(-c3nc4c(-c5cc(F)cc(CNS(C)(=O)=O)c5)cccc4[nH]3)n[nH]c2cn1 [compound 288] | 7.96 | 7.43 | 7.52 | 30 | 81.8
36 | Cc1ccncc1-c1cnc2[nH]nc(-c3nc4c(-c5cc(F)cc(CNS(C)(=O)=O)c5)nccc4[nH]3)c2c1 [compound 289] | 8.40 | 7.41 | 6.91 | 10 | 92.8
37 | Cc1ccncc1-c1cc2c(-c3nc4c(-c5cc(F)cc(CNS(C)(=O)=O)c5)ccnc4[nH]3)n[nH]c2cn1 [compound 291] | 7.49 | 7.27 | 6.96 | 30 | 70
38 | CC(C)CC(=O)Nc1cncc(-c2ccc3[nH]nc(-c4nc5c(-c6cc(F)cc(CNS(C)(=O)=O)c6)cncc5[nH]4)c3c2)c1 [compound 292] | 8.05 | 7.22 | 8.30 | 100 | 118
